Measured values: patent publication USRE43712E1, “Methods for assaying for antidepressant therapy markers” (The Board of Trustees of the Uniersity of Illinois, priority 2000, dated 2012)
Marks after values point to notes of the source that are not given here.

Legend:
Type in all cases: cell-based
[1] = test system: Gsα; assay: Content of G protein (Gsα) in C6-2B glioma membranes after antidepressant treatment, quantitative immunoblot
Procedure: (§1) C6-2B cells (between passages 20 and 40) were grown in 175-cm^2 flasks in Dulbecco's modified Eagle medium, 4.5 g of glucose/L, 10% bovine serum, in a 10% CO2 atmosphere, at 37° C. for 3 days after splitting. […] Male Sprague-Dawley rats weighing 150-200 g were fed ad libitum and maintained in a 12-h light/dark cycle. […] 36:803-838, 1989]. […] Rat cerebral cortex membranes were prepared according to the method of Rasenick et al. [Nature, 294:560-562; 1981].
(§2) Rat cortex membrane, C6-2B cell membranes, or Triton extracts of each membrane preparation were subjected to SDS-PAGE followed by electrotransfer to polyvinylidene difluoride (PVDF) membrane. The PVDF membrane was incubated with a phosphate-buffered saline/Tween 20 Buffer (140 mM NaCl, […]. 0.1% Tween 20, pH 7.4) and 3% bovine serum albumin. The membrane was then incubated with polyclonal rabbit antisera against the various G protein subunits [RM (Gsα) or 116 (Gi1, Gi2, Gi3α)] at a 1:25,000 (RM) or 1:5,000 (116) dilution (see below for source of antibodies). […] Immunoreactivity was detected with an enhanced chemiluminescence (ECL) western blot detection system (Amersham) in accord with the manufacturer's instructions. The developed autoradiographs were analyzed by densitometry.
Purified recombinant GsαL (long form of Gsα; 1-10 ng/lane) was subjected to SDS-PAGE and transferred to PVDF membranes. The blots were incubated with antibody against Gsα (RM) and processed by ECL. Films were analyzed on a Molecular Dynamics densitometer, and the volume of each band was quantified and used to make a standard curve.
Experiments were conducted to determine whether Gsα is quantitatively altered by antidepressant therapy. For quantification of Gsα in C6-2B membrane, a standard curve was created using purified recombinant […]. Pure Gsα (1-20 ng/well) was subjected to SDS-PAGE and transferred to a PVDF membrane, Gsα was immunodetected by antisera against the as subunit of G protein.
To estimate the effect of antidepressant treatment on the amount of Gsα in C6-2B membranes, equal amounts (10 μg) of C6-2B glioma membrane proteins in control and chronically (3 days) antidepressant-treated groups were subjected to SDS-PAGE. Gsα was immunodetected by antisera against the αs subunit of G protein.

[2] = test system: Gsα; assay: Sequential detergent extraction (Triton X-100 / Triton X-114) of Gsα from C6-2B glioma membranes; settings: C6-2B cells; for GsαL in Remainder, % of corresponding value in control group / GsαL in Triton X-100 extract, % of corresponding value in control group / GsαL in Triton X-114 extract, % of corresponding value in control group / GsαS in Remainder, % of corresponding value in control group / GsαS in Triton X-100 extract, % of corresponding value in control group / GsαS in Triton X-114 extract, % of corresponding value in control group: mean ± SEM of 4-5 experiments
Procedure: as §1
Membrane proteins were extracted sequentially from C6-2B or rat synaptic membranes as described [Yan et al., J. Neurochem., 66:1489-1495; 1996]. These membranes were stirred on ice in HEPES (15 mM, pH 7.4) containing 1% Triton X-100 for 60 min followed by centrifugation at 100,000 g for 60 min at 4° C. The supernatant was reserved (Triton X-100 extract), and the resulting pellet was resuspended in Tris (15 mM, pH 7.4) containing 1.4% Triton X-114 and 150 mM NaCl. The solution was stirred for 60 min at 4° C. and centrifuged for 30 min at 100,000 g in the cold. The supernatant was saved (Triton X-114 extract). These supernatants and remaining pellet (remainder) were subjected to sodium dodecyl sulfate (SDS)-polyacrylamide gel electophoresis (PAGE) using 10% gels. All of the extraction buffers contained 1 mM PMSF and 1 mM EGTA.
as §2
A membrane-enriched fraction was prepared (see Example 1), and membrane proteins were extracted sequentially with Triton X-100 (Tx 100) and Triton X-114 (Tx 114). Equal amounts of these extracts were subjected to SDS-PAGE and transferred to PVDF membrane. The long and short forms of Gsα (GsαL and GsαS) from different fractions were identified by immunodetection.
Experiments were conducted according to the method set forth in Example 1 to assess the effects of different antidepressants on the detergent extraction of Gsα from C6-2B glioma cells.
The ratios of the percentage of Gsα extracted by the two detergents in the treatment versus control groups were compared and are set forth in Table 2 as percentage of control (i.e., each Triton X-100 extract was compared with the untreated Triton X-100 extract; the same was done for Triton X-114 extracts as well as the remainder).

[3] = test system: Gsα; assay: Gsα in Triton-insoluble, caveolin-enriched versus Triton-soluble fraction of C6-2B cells (sucrose density gradient, immunoblot); settings: chronic treatment, FIG. 3C
Procedure: as §2

[4] = test system: Gsα; assay: Cellular localization of Gsα in C6-2B cells, immunofluorescence laser scanning confocal microscopy; settings: 10 μM, 3 days
Procedure: C6-2B cells (between passages 30 and 50) were plated onto coverslips and allowed to attach overnight in Dulbecco's modified Eagle's medium. 4.5 g/l glucose, 10% bovine serum, and 100 μg/ml penicillin and streptomycin at 37° C. in a humidified 10% CO2 atmosphere. […] Therefore, the latter treatment paradigm was used in these experiments because it was easier to maintain the cell cultures for 3 days. […] The culture media and drug were changed daily. […] After the treatment duration, the cells were incubated in drug-free media for 45 to 60 minutes before fixation.
After treatment, cells were washed once with phosphate-buffered saline (PBS, […] NaCl, 2.6 mM KCl, 5.4 mM NaαPO4 7H2O, pH 7.4) and fixed with ice-cold methanol for 10 minutes. Cells were then washed three times with PBS followed by 2 h of blocking in 5% normal goat serum/0.2% fish skin gelatin in PBS. Primary antibody was added for 1.5 h, Gsα/RM1 (PerkinElmer Life Sciences, Boston, Mass.) 1:50 and Goα (Santa Cruz Biotechnology, Santa Cruz, Calif.) 2 μg/ml, followed by three washes with PBS. Oregon Green-labeled secondary antibody (Molecular Probes, Eugene, Oreg.) was added at a concentration of 8 μg/ml for 1 h followed by three PBS washes. The coverslips were mounted onto slides with Vectashield (Vector Laboratories. Burlingame, Calif.) containing diamidino-2-phenylindole as a mounting medium. Images were acquired using a Zeiss LSM510 laser-scanning confocal microscope (Carl Zeiss Inc., Thornwood, N.Y.). A single 488-nm beam from an argon/krypton laser was used for excitation of the Oregon Green. Differential interference contrast images were also acquired. Five experiments were performed and coverslips were examined. Approximately 2100 cells from control and desipramine-treated coverslips were counted by two investigators blind to the experimental conditions over the course of the five experiments.
The cellular distribution of Gsα was quantified in confocal imaged C6-2B cells using NIH-Image software (http://rsbinfonihpov/nih-image) as describe previously [Southwell et al., Cell Tissue Res., 292:37-45, 1998; Jenkinson et al., Br. J. Pharmacol., 126:131-136, 1999]. Images of 9×1 μm optical, planar sections taken from four randomly selected control and four randomly selected desipramine-treated cells were captured and the middle five sections from each cell were quantified. Total cellular Gsα fluorescence was measured by counting the number of pixels with intensity above threshold (determined by minimum intensity above background in this case 50 pixels). The areas of intensity were numbered and divided visually into those localized to the cell body and those localized to the processes and process tips. The total from each region was divided by the total cell pixel intensity and expressed as a percentage of the total. This was done for each section of each cell and the sections were averaged per cell to give an average percentage total per cell.
In a separate investigation, seven sets of 300 cells each from control group and desipramine-treated cells from five experiments were counted to determine the primary localization (processes and process tips or cell body) of Gsα within these cells. The majority of the cells stained positively for Gsα throughout the entire cell, but there was usually an enhancement in one of these regions. […] The counts are expressed as the ratio of process and process tip localization/cell body localization.
Studies were conducted to determine whether a shift in cellular localization of Gsα occurred in C6-2B cells subjected to antidepressants.
Twenty-one hundred cells from each group (control versus desipramine-treated) over a series of five experiments were examined to quantify the extent of the antidepressant effect. […] Abnormal cells or those not displaying processes were not included in the cell count. Cells (300-450) were counted per experiment and the ratio of category A cells to category B cells for each group is shown in FIG. 8. […]

[5] = C6-2B membranes, 10 μM drug for 3 days, mean ± SEM of 4-5 experiments

SMILES | Quantity of G proteins in membrane, treated versus control ([1]; C6-2B cells, 10 μM, 3 days, p>0.05) | G protein amount, Total [1, 5] | G protein amount, αsL [1, 5] | G protein amount, αsS [1, 5] | GsαL in the Triton X-114 fraction versus control group ([2]; 10 μM, 3 days, FIG. 1) | GsαL in Remainder, % of corresponding value in control group ([2]; 10 μM, 3 days) | GsαL in Triton X-100 extract, % of corresponding value in control group ([2]; 10 μM, 3 days) | GsαL in Triton X-114 extract, % of corresponding value in control group ([2]; 10 μM, 3 days) | GsαS in Remainder, % of corresponding value in control group ([2]; 10 μM, 3 days) | GsαS in Triton X-100 extract, % of corresponding value in control group ([2]; 10 μM, 3 days) | GsαS in Triton X-114 extract, % of corresponding value in control group ([2]; 10 μM, 3 days) | Decrease of the amount of Gsα in the caveolin-enriched Triton-insoluble fraction, normalized to equal caveolin [3] | Gsα immunofluorescence in cell processes and process tips [4] | Cells displaying intense Gsα staining at the process tips (and processes) ([4]; control 64%) | Shift of Gsα to the less hydrophobic Triton X-100 fraction [2]
CN(C)CCC=C1c2ccccc2CCc2ccccc21 [Amitriptyline, amitriptyline] | no significant differences | 13.10 ± 0.34 ng/10 ug of membrane protein | 8.13 ± 0.17 ng/10 ug of membrane protein | 4.98 ± 0.21 ng/10 ug of membrane protein | significantly lower | 83.4 ± 14.5% | 120.3 ± 3.7^b % | 84.5 ± 0.8^b % | 82.6 ± 5.1^a % | 140.3 ± 9.3^b % | 92.7 ± 3.8% | – | – | – | –
CN(C)CCCN1c2ccccc2Sc2ccc(Cl)cc21 [Chlorpromazine, chlorpromazine] | – | – | – | – | – | 83.8 ± 22.0% | 107.4 ± 8.3% | 105.7 ± 6.5% | 100.4 ± 31.6% | 113.4 ± 10.7% | 102.2 ± 15.6% | no more than 25% | uniform distribution of Gsα similar to control | 68% | did not exert these effects
CC(N)Cc1ccccc1 (stereo not shown) [amphetamine] | – | – | – | – | – | – | – | – | – | – | – | – | – | – | without effect
